From patent publication US7501430B2 (ArQule, Inc., priority 2006, dated 2009)
Where two headings read alike, the source gives them in different places.

Biological target: T1, mutant B-RAF (Homo sapiens, UniProt P15056, V600E)
T1 construct: purchased Upstate (Charlottesville, Va.)
Assay: RAF biochemical assay (MEK-1 phosphorylation, anti-phospho MEK1/2 detection)
Settings: for inhibition at 10 µM: read-out: Mutant B-RAF % inhibition; for IC50: read-out: Mutant B-RAF IC50
Description: Materials: The RAF kinases and the anti-phospho MEK1/2 antibody were from Upstate (Charlottesville, Va.). The RAF substrate used was full length N-terminal GST-MEK-1, which was expressed in E. coli and purified in-house by HPLC. All proteins were aliquoted and stored at −80° C.
Compounds were serially diluted in assay buffer containing 1% DMSO and 20 μL of test compound at a concentration 3-fold more than the final concentration, and were added to a polypropylene V-well reaction plate. Vehicle control wells received buffer only with DMSO at equivalent concentrations to the test wells. […] These reaction plates were incubated at room temperature for 30 minutes. Capture of MEK-1 was initiated by transferring 50 μl of the reaction mixture to a Nunc Maxisorp™ microplate that is designed for non-specific protein capture. After 30 minute capture of MEK-1 at room temperature, this plate was washed with TBST (6×200 μL/well) to fully terminate the reaction. The plate was then blocked for 1 hour by the addition of 100 μl/well of Superblock™ in phosphate buffered saline (PBS) blocking reagent. Plate was again washed with TBST (6 times with 200 μL/well), followed by the addition of 70 μL/well of Upstate anti-phospho MEK 1/2 diluted 1:1000 in Pierce Superblock (PBS). After a 60 minute incubation, this plate was washed with TBST (6 times with 200 μL/well), and 70 μL of the secondary antibody (Pierce Alkaline Phosphatase tagged goat anti-rabbit) prepared at 1:4000 in Superblock, were added. After a 45 minute incubation at room temperature, the wells of the microplate were washed with TBST (6 times with 200 μL/well), and thereafter 100 μl/well of Attophos™ fluorescent alkaline phosphatase substrate was added according to the manufacturer's instructions (JBL Scientific).

T1 sequence (P15056 whole entry V600E): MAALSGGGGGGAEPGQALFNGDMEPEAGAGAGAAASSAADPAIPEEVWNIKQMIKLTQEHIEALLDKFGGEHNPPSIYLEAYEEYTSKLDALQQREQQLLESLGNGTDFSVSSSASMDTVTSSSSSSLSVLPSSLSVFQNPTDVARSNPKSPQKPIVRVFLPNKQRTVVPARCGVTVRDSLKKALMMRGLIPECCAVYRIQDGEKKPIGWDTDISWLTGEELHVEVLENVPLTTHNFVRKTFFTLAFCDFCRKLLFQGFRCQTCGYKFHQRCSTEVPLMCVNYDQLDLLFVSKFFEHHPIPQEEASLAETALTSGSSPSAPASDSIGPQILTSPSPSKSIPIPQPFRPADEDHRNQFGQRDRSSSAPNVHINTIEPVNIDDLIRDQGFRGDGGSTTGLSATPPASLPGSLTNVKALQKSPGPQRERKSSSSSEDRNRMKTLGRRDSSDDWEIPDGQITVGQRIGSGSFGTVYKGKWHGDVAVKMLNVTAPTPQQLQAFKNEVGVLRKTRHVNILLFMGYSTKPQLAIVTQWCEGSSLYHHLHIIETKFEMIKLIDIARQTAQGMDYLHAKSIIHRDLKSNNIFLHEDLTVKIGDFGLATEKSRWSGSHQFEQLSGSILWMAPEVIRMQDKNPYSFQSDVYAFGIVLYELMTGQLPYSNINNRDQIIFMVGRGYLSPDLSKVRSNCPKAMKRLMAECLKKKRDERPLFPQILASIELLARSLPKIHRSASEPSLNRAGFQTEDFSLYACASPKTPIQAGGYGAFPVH

O=C(Nc1ccc(F)c(F)c1)N1CCC[C@@H](Nc2nccc(-c3c(-c4ccc(F)cc4)nc4occn34)n2)C1 [Example 73, (3R)-N-(3,4-difluorophenyl)-3-({4-[6-(4-fluorophenyl)imidazo[2,1-b][1,3]oxazol-5-yl]pyrimidin-2-yl}amino)piperidine-1-carboxamide] showed an inhibition at 10 µM (@ 10 uM) of 37%.

Molecule O=C(Nc1ccccc1F)N1CCC[C@@H](Nc2nccc(-c3c(-c4ccc(F)cc4)nc4occn34)n2)C1 [Example 74, (3R)-N-(2-fluorophenyl)-3-({4-[6-(4-fluorophenyl)imidazo[2,1-b][1,3]oxazol-5-yl]pyrimidin-2-yl}amino)piperidine-1-carboxamide] has an inhibition at 10 µM (@ 10 uM) of 35%.

For COc1cc([N+](=O)[O-])ccc1NC(=O)N1CCC[C@@H](Nc2nccc(-c3c(-c4ccc(F)cc4)nc4occn34)n2)C1 [Example 75, (3R)-3-({4-[6-(4-fluorophenyl)imidazo[2,1-b][1,3]oxazol-5-yl]pyrimidin-2-yl}amino)-N-(2-methoxy-4-nitrophenyl)piperidine-1-carboxamide], the IC50 was > 10000 nM.

Molecule O=C(NCc1ccc(F)cc1)N1CCC[C@@H](Nc2nccc(-c3c(-c4ccc(F)cc4)nc4occn34)n2)C1 [Example 76, (3R)-N-(4-fluorobenzyl)-3-({4-[6-(4-fluorophenyl)imidazo[2,1-b][1,3]oxazol-5-yl]pyrimidin-2-yl}amino)piperidine-1-carboxamide] has an inhibition at 10 µM (@ 10 uM) of 36%.

COc1cccc(-c2nc3sccn3c2-c2ccnc(N[C@@H]3CCCNC3)n2)c1 [Example 77, 4-[6-(3-methoxyphenyl)imidazo[2,1-b][1,3]thiazol-5-yl]-N-[(3R)-piperidin-3-yl]pyrimidin-2-amine] was tested, and the IC50 was 1810 nM.

Fc1ccc(-c2nc3sccn3c2-c2ccnc(N[C@@H]3CCCNC3)n2)cc1F [Example 78, 4-[6-(3,4-difluorophenyl)imidazo[2,1-b][1,3]thiazol-5-yl]-N-[(3R)-piperidin-3-yl]pyrimidin-2-amine] gave an IC50 of 1260 nM.

In the case of Cc1cn2c(-c3ccnc(N[C@@H]4CCCNC4)n3)c(-c3ccc(F)cc3)nc2s1 [Example 79, 4-[6-(4-fluorophenyl)-2-methylimidazo[2,1-b][1,3]thiazol-5-yl]-N-((3R)-piper-idin-3-yl]pyrimidin-2-amine], the inhibition at 10 µM (@ 10 uM) is reported as 67%.

With COc1cccc(-c2nc3sccn3c2-c2ccnc(N[C@@H]3CCCN(C(=O)NCc4ccccc4)C3)n2)c1 [Example 80, (3R)-N-benzyl-3-({4-[6-(3-methoxyphenyl)imidazo[2,1-b][1,3]thiazol-5-yl]pyrimidin-2-yl}amino)piperidine-1-carboxamide] the inhibition at 10 µM (@ 10 uM) was 40%.

COc1cccc(-c2nc3sccn3c2-c2ccnc(N[C@@H]3CCCN(C(=O)NCc4ccco4)C3)n2)c1 [Example 81, (3R)-N-(2-furylmethyl)-3-({4-[6-(3-methoxyphenyl)imi-dazo[2,1-b][1,3]thiazol-5-yl]pyrimidin-2-yl}amino)piperidine-1-carboxamide] gave an inhibition at 10 µM of 50%.

Work on COc1cccc(-c2nc3sccn3c2-c2ccnc(N[C@@H]3CCCN(S(=O)(=O)c4ccc(F)cc4)C3)n2)c1 [Example 82, N-{(3R)-1-[(4-fluorophenyl)sulfonyl]piper-idin-3-yl}-4-(6-(3-methoxyphenyl)imidazo[2,1-b][1,3]thiazot-5-yl]pyrimidin-2-amine] yielded an IC50 of 192 nM.

COc1ccc(C(=O)N2CCC[C@@H](Nc3nccc(-c4c(-c5cccc(OC)c5)nc5sccn45)n3)C2)cc1 [Example 83, N-[(3R)-1-(4-methoxybenzoyl)piperidin-3-yl]-4-[6-(3-methoxyphenyl)imidazo[2,1-b][1,3]thiazol-5-yl]pyrimidin-2-amine] was tested, and the IC50 was > 3000 nM.

COc1cccc(-c2nc3sccn3c2-c2ccnc(N[C@@H]3CCCN(C(=O)Nc4ccc(N(C)C)cc4)C3)n2)c1 [Example 84, (3R)-N-[4-(dimethylamino)phenyl]-3-({4-[6-(3-methoxyphenyl)imi-dazo[2,1-b][1,3]thiazol-5-yl]pyrimidin-2-yl}amino)piperidine-1-carboxamide] showed an inhibition at 10 µM of 19%.

O=S(=O)(c1ccc(F)cc1)N1CCC[C@@H](Nc2nccc(-c3c(-c4ccc(F)c(F)c4)nc4sccn34)n2)C1 [Example 85, 4-[6-(3,4-difluorophenyl)imidazo[2,1-b][1,3]thiazol-5-yl]-N-{(3R)-1-[(4-fluorophenyl)sulfonyl]piperidin-3-yl}pyrimidin-2-amine] gave an IC50 of 58 nM.

CN(C)c1ccc(NC(=O)N2CCC[C@@H](Nc3nccc(-c4c(-c5ccc(F)c(F)c5)nc5sccn45)n3)C2)cc1 [Example 86, (3R)-3-({4-[6-(3,4-difluorophenyl)imidazo[2,1-b][1,3]thiazol-5-yl]pyrimidin-2-yl}amino)-N-[4-(dimethylamino)phenyl]pip-eridine-1-carboxamide] was tested, and the inhibition at 10 µM (@ 10 uM) was 54%.

In the case of O=C(NCc1ccccc1)N1CCC[C@@H](Nc2nccc(-c3c(-c4ccc(F)c(F)c4)nc4sccn34)n2)C1 [Example 87, (3R)-N-benzyl-3-({4-[6-(3,4-difluorophenyl)imidazo[2,1-b][1,3]thiazol-5-yl]pyrimidin-2-yl}amino)piperidine-1-carboxamide], the inhibition at 10 µM (@ 10 uM) is reported as 53%.

O=C(NCc1ccco1)N1CCC[C@@H](Nc2nccc(-c3c(-c4ccc(F)c(F)c4)nc4sccn34)n2)C1 [Example 88, (3R)-3-({4-[6-(3,4-difluorophenyl)imidazo[2,1-b][1,3]thiazol-5-yl]pyrimidin-2-yl}amino)-N-(2-furylmethyl)piperidine-1-carboxamide] was tested, and the inhibition at 10 µM (@ 10 uM) was 54%.

COc1ccc(C(=O)N2CCC[C@@H](Nc3nccc(-c4c(-c5ccc(F)c(F)c5)nc5sccn45)n3)C2)cc1 [Example 89, 4-[6-(3,4-difluorophenyl)imidazo[2,1-b][1,3]thiazol-5-yl]-N-[(3R)-1-(4-methoxybenzoyl)piper-idin-3-yl]pyrimidin-2-amine] showed an inhibition at 10 µM (@ 10 uM) of 40%.

For Cc1cn2c(-c3ccnc(N[C@@H]4CCCN(S(=O)(=O)c5ccc(F)cc5)C4)n3)c(-c3ccc(F)cc3)nc2s1 [Example 91, 4-[6-(4-fluorophenyl)-2-methylimidazo[2,1-b][1,3]thiazol-5-yl]-N-{(3R)-1-[(4-fluorophenyl)sulfonyl]piper-idin-3-yl}pyrimidin-2-amine], the IC50 was 352 nM.

With Cc1cn2c(-c3ccnc(N[C@@H]4CCCN(C(=O)NCc5ccco5)C4)n3)c(-c3ccc(F)cc3)nc2s1 [Example 93, (3R)-3-({4-[6-(4-fluoro-phenyl)-2-methylimidazo[2,1-b][1,3]thiazol-5-yl]pyrimidin-2-yl}amino)-N-(2-furylmethyl)piperidine-1-carboxamide] the inhibition at 10 µM (@ 10 uM) was 61%.

In the case of Cc1cn2c(-c3ccnc(N[C@@H]4CCCN(C(=O)Nc5ccc(N(C)C)cc5)C4)n3)c(-c3ccc(F)cc3)nc2s1 [Example 94, (3R)-N-[4-(dimethyl-amino)phenyl]-3-({4-[6-(4-fluorophenyl)-2-methylimidazo[2,1-b][1,3]thiazol-5-yl]pyrimidin-2-yl}amino)piperidine-1-carboxamide], the IC50 is reported as > 3000 nM.

With COc1cccc(-c2nc3sccn3c2-c2ccnc(N[C@@H]3CCCN(S(=O)(=O)c4ccc(Cl)cc4)C3)n2)c1 [Example 95, N-{(3R)-1-[(4-chlorophenyl)sulfonyl]piperidin-3-yl}-4-[6-(3-methoxyphenyl)imidazo[2,1-b][1,3]thiazol-5-yl]pyrimidin-2-amine] the IC50 was 147 nM.

In the case of Cc1cn2c(-c3ccnc(N[C@@H]4CCCN(S(=O)(=O)c5ccc(Cl)cc5)C4)n3)c(-c3ccc(F)cc3)nc2s1 [Example 96, N-{(3R)-1-[(4-chlorophenyl)sulfonyl]piperidin-3-yl}-4-[6-(4-fluorophenyl)-2-methyl-imidazo[2,1-b][1,3]thiazol-5-yl]pyrimidin-2-amine], the IC50 is reported as 26 nM.

Work on c1ccc2cc(-c3nc4sccn4c3-c3ccnc(N[C@@H]4CCCNC4)n3)ccc2c1 [Example 97, 4-[6-(2-naphthyl)imidazo[2,1-b][1,3]thiazol-5-yl]-N-[(3R)-piperidin-3-yl]pyrimidin-2-amine] yielded an IC50 of 314 nM.

In the case of O=S(=O)(c1ccc(Cl)cc1)N1CCC[C@@H](Nc2nccc(-c3c(-c4ccc(F)cc4)nc4sccn34)n2)C1 [Example 98, N-{(3R)-1-[(4-chlorophenyl)sulfonyl]piperidin-3-yl}-4-[6(4-fluorophenyl)imidazo[2,1-b][1,3]thiazol-5-yl]pyrimidin-2-amine], the IC50 is reported as 36 nM.

With c1cc(-c2c(-c3ccc4c(c3)OCCO4)nc3sccn23)nc(N[C@@H]2CCCNC2)n1 [Example 99, 4-[6-(2,3-dihydro-1,4-benzodioxin-6-yl)imidazo[2,1-b][1,3]thiazol-5-yl]-N-[(3R)-piperidin-3-yl]pyrimidin-2-amine] the inhibition at 10 µM (@ 10 uM) was 29%.

With COc1cc(-c2nc3sccn3c2-c2ccnc(N[C@@H]3CCCN(S(=O)(=O)c4ccc(Cl)cc4)C3)n2)ccc1Cl [Example 100, 4-[6-(4-chloro-3-methoxyphenyl)imidazo[2,1-b][1,3]thiazol-5-yl]-N-{(3R)-1-[(4-chlorophenyl)sulfonyl]piper-idin-3-yl}pyrimidin-2-amine] the inhibition at 10 µM (@ 10 uM) was 40%.
